One data set relates to CFPAC-1. Nature of the data set: Antiproliferative activity against human CFPAC-1 cells assessed as reduction in cell viability after 4 days by MTT assay. The settings on record: CFPAC-1, 96 h, read-out: IC50. The data set is classed as functional, cell-based.
The test system of a further data set is CAPAN-1. Description: Antiproliferative activity against human CAPAN-1 cells assessed as reduction in cell viability after 4 days by MTT assay. The data set is classed as functional, cell-based. Conditions: CAPAN-1, 96 h. Background: Tetrazolium dyes change colour on reduction, which living cells bring about.
Data set [1] concerns SW1990. Description: Antiproliferative activity against human SW1990 cells assessed as reduction in cell viability after 4 days by MTT assay. The data set is classed as functional, cell-based. The settings on record: SW1990, 96 h.
A further data set deals with MDA-MB-231. Description: Antiproliferative activity against human MDA-MB-231 cells assessed as reduction in cell viability after 7 days. In kind it is functional, cell-based. Conditions: MDA-MB-231, 168 h.
Data set [2] addresses Histone acetyltransferase p300 (Homo sapiens, UniProt Q09472). Nature of the data set: Inhibition of P300 (unknown orign) using acetyl-CoA as substrate preincubated for 30 mins followed by substrate addition measured after 1 hr by microplate reader analysis.
Data set [3] concerns SW1990. Description: Induction of cell cycle arrest in human SW1990 cells assessed as accumulation of cells at G2/M phase at 1 uM incubated for 4 days in presence of 3 uM Olaparib by propidium iodide staining based flow cytometry (reference value: 5.89%). The data set is classed as functional. The settings on record: time 4 day. Background: A flow cytometer gives signals particle by particle.

The test system of data set [4] is SW1990. Nature of the data set: Inhibition of homologous recombinant repair in human SW1990 cells assessed as reduction in Olaparib-induced BRCA1 expression at 1 uM after 4 days in presence of Olaparib by Q-PCR analysis. In kind it is functional, cell-based. Conditions: time 4.0 day.
In data set [5] the test system is SW1990. Nature of the data set: Inhibition of homologous recombinant repair in human SW1990 cells assessed as reduction in Olaparib-induced Rad51 expression at 1 uM after 4 days in presence of Olaparib by Q-PCR analysis. In kind it is functional, cell-based. The settings on record: time 4.0 day.
Data set [6] relates to SW1990. Description: Inhibition of homologous recombinant repair in human SW1990 cells assessed as reduction in FOXM1 expression at 4 uM after 4 days by Q-PCR analysis. In kind it is functional, cell-based. Conditions: time 4.0 day.
In data set [7] the test system is SW1990. Description: Inhibition of homologous recombinant repair in human SW1990 cells assessed as reduction in BRCA1 expression at 4 uM after 4 days by Q-PCR analysis. The data set is classed as functional, cell-based. Conditions: time 4.0 day.
Data set [8] relates to SW1990. Description: Inhibition of homologous recombinant repair in human SW1990 cells assessed as reduction in BRCA1 expression at 4 uM after 4 days by Western blot analysis. The data set is classed as functional, cell-based. The settings on record: time 4.0 day. For orientation: In western blotting, separated proteins are transferred to a membrane and probed.
The test system of data set [9] is Mus musculus. Nature of the data set: Inhibition of homologous recombinant repair in human SW1990 cells xenografted in BALB/c mouse assessed as reduction in c-Myc expression at 45 mg/kg, ip after 4 days by immunohistochemical analysis. The data set is classed as functional, organism-based. Conditions: time 4.0 day.
Data set [10] has as its target Bromodomain-containing protein 3 (Homo sapiens, UniProt Q15059). Nature of the data set: Inhibition of recombinant BRD3 BD1 (unknown origin) incubated for 120 mins by TR-FRET assay.
The test system of data set [11] is Mus musculus. Description: Inhibition of homologous recombinant repair in human SW1990 cells xenografted in BALB/c mouse assessed as reduction in olaparib-induced BRCA1 expression at 15 mg/kg, ip after 4 days by immunohistochemical analysis. In kind it is functional, organism-based. The settings on record: time 4.0 day.
The target in data set [12] is Bromodomain-containing protein 4 (Homo sapiens, UniProt O60885). Nature of the data set: Inhibition of BRD4 expression in human SW1990 cells at 1 uM after 4 days by Q-PCR analysis. The data set is classed as cell-based. The settings on record: time 4.0 day.
For data set [13], the system named is SW1990. Nature of the data set: Antitumor activity against human SW1990 cells xenografted in BALB/c mouse assessed as inhibition of tumor growth at 45 mg/kg, ip administered for 28 consecutive days and measured every 3 days by vernier caliper method. The data set is classed as functional, organism-based. The settings on record: time 28.0 day.
Data set [14] has as its system Mus musculus. Nature of the data set: Toxicity in BALB/c mouse xenografted with human SW1990 cells assessed as effect on body weight at 45 mg/kg, ip administered for 28 consecutive days. In kind it is organism-based. The settings on record: in vivo, 672 h, time 28 day.
For data set [15], the system named is Mus musculus. Nature of the data set: Toxicity in BALB/c mouse xenografted with human SW1990 cells assessed as spleen damage at 45 mg/kg, ip administered for 28 consecutive days by H and E staining based […] microscopic analysis. Conditions: in vivo, 672 h, time 28 day. The data set is classed as organism-based.
Data set [16] concerns Mus musculus. Nature of the data set: In vivo inhibition of BRD4 expression in human […] cells xenografted in BALB/c mouse at 45 mg/kg, ip administered for 28 consecutive days by immunohistochemical analysis. Conditions: time 28.0 day. In kind it is functional, organism-based.
The test system of data set [17] is Mus musculus. Nature of the data set: In vivo inhibition of PARP1 expression in human […] cells xenografted in BALB/c mouse at 45 mg/kg, ip administered for 28 consecutive days by Q-PCR analysis. The data set is classed as functional, organism-based. Conditions: time 28.0 day.
The test system of data set [18] is SW1990. Description: Induction of apoptosis in human SW1990 cells assessed as early apoptotic cells at 1 uM after 4 days by Annexin V-FITC and propidium iodide staining based flow cytometry (reference value: […]%). In kind it is functional. Conditions: time 4 day.
Data set [19] relates to SW1990. Nature of the data set: Induction of apoptosis in human SW1990 cells assessed as necrotic cells at 1 uM after 4 days by Annexin V-FITC and propidium iodide staining based flow cytometry (reference value: 1.89%). In kind it is functional. Conditions: time 4 day.
Data set [20] deals with SW1990. Nature of the data set: Induction of cell cycle arrest in human SW1990 cells assessed as accumulation of cells at G0/G1 phase at 1 uM incubated for 4 days by propidium iodide staining based flow cytometry (reference value: 64.79%). In kind it is functional. Conditions: time 4 day.
Data set [21] relates to SW1990. Nature of the data set: Induction of cell cycle arrest in human SW1990 cells assessed as accumulation of cells at G2/M phase at 1 uM incubated for 4 days by propidium iodide staining based flow cytometry (reference value: 5.89%). In kind it is functional. The settings on record: time 4 day.
Data set [22] concerns SW1990. Nature of the data set: Induction of cell cycle arrest in human SW1990 cells assessed as accumulation of cells at G2/M phase at 2 uM incubated for 4 days by propidium iodide staining based flow cytometry (reference value: 5.89%). In kind it is functional. The settings on record: time 4 day.
For data set [23], the system named is Mus musculus. Nature of the data set: Effect on cell cycle progression in human SW1990 cells xenografted in BALB/c mouse assessed as reduction in PLK1 expression at 45 mg/kg, ip after 4 days by Q-PCR analysis. The data set is classed as functional, organism-based. The settings on record: time 4.0 day.
For data set [24], the system named is SW1990. Description: Effect on cell cycle progression in human SW1990 cells assessed as reduction in CCND1 expression at 1 to 2 uM after 4 days by Western blot analysis. The data set is classed as functional, cell-based. Conditions: dose 1-2 µM, time 4.0 day.
Data set [25] has as its system SW1990. Description: Effect on cell cycle progression in human SW1990 cells assessed as reduction in CCND1 expression at 1 to 2 uM after 4 days by Q-PCR analysis. Conditions: dose 1-2 µM, time 4.0 day. The data set is classed as functional, cell-based.
Data set [26] concerns SW1990. Nature of the data set: Effect on cell cycle progression in human SW1990 cells assessed as reduction in E2F2 expression at 1 to 2 uM after 4 days by Q-PCR analysis. The data set is classed as functional, cell-based. The settings on record: dose 1-2 µM, time 4.0 day.
Data set [27] has as its system SW1990. Description: Inhibition of homologous recombinant repair in human SW1990 cells assessed as reduction in BRCA1 expression at 1 to 2 uM after 4 days by Q-PCR analysis. In kind it is functional, cell-based. Conditions: dose 1-2 µM, time 4.0 day.
Data set [28] has as its system SW1990. Nature of the data set: Inhibition of homologous recombinant repair in human SW1990 cells assessed as reduction in Rad51 expression at 1 to 2 uM after 4 days by Western blot analysis. In kind it is functional, cell-based. The settings on record: dose 1-2 µM, time 4.0 day.
Data set [29] relates to SW1990. Nature of the data set: Inhibition of homologous recombinant repair in human SW1990 cells assessed as increase in […] expression at 1 to 2 uM after 4 days by Q-PCR analysis. In kind it is functional, cell-based. Conditions: dose 1-2 µM, time 4.0 day.
The test system of data set [30] is SW1990. Nature of the data set: Induction of autophagy in human SW1990 cells xenografted in BALB/c mouse assessed as increase in ATG5 expression at 45 mg/kg, ip after 4 days by Q-PCR analysis. The data set is classed as functional, organism-based. The settings on record: time 4.0 day.

The source made the active and inactive calls. The rule behind the calls is not given here.

Sequence of Histone acetyltransferase p300 (Q09472 whole entry): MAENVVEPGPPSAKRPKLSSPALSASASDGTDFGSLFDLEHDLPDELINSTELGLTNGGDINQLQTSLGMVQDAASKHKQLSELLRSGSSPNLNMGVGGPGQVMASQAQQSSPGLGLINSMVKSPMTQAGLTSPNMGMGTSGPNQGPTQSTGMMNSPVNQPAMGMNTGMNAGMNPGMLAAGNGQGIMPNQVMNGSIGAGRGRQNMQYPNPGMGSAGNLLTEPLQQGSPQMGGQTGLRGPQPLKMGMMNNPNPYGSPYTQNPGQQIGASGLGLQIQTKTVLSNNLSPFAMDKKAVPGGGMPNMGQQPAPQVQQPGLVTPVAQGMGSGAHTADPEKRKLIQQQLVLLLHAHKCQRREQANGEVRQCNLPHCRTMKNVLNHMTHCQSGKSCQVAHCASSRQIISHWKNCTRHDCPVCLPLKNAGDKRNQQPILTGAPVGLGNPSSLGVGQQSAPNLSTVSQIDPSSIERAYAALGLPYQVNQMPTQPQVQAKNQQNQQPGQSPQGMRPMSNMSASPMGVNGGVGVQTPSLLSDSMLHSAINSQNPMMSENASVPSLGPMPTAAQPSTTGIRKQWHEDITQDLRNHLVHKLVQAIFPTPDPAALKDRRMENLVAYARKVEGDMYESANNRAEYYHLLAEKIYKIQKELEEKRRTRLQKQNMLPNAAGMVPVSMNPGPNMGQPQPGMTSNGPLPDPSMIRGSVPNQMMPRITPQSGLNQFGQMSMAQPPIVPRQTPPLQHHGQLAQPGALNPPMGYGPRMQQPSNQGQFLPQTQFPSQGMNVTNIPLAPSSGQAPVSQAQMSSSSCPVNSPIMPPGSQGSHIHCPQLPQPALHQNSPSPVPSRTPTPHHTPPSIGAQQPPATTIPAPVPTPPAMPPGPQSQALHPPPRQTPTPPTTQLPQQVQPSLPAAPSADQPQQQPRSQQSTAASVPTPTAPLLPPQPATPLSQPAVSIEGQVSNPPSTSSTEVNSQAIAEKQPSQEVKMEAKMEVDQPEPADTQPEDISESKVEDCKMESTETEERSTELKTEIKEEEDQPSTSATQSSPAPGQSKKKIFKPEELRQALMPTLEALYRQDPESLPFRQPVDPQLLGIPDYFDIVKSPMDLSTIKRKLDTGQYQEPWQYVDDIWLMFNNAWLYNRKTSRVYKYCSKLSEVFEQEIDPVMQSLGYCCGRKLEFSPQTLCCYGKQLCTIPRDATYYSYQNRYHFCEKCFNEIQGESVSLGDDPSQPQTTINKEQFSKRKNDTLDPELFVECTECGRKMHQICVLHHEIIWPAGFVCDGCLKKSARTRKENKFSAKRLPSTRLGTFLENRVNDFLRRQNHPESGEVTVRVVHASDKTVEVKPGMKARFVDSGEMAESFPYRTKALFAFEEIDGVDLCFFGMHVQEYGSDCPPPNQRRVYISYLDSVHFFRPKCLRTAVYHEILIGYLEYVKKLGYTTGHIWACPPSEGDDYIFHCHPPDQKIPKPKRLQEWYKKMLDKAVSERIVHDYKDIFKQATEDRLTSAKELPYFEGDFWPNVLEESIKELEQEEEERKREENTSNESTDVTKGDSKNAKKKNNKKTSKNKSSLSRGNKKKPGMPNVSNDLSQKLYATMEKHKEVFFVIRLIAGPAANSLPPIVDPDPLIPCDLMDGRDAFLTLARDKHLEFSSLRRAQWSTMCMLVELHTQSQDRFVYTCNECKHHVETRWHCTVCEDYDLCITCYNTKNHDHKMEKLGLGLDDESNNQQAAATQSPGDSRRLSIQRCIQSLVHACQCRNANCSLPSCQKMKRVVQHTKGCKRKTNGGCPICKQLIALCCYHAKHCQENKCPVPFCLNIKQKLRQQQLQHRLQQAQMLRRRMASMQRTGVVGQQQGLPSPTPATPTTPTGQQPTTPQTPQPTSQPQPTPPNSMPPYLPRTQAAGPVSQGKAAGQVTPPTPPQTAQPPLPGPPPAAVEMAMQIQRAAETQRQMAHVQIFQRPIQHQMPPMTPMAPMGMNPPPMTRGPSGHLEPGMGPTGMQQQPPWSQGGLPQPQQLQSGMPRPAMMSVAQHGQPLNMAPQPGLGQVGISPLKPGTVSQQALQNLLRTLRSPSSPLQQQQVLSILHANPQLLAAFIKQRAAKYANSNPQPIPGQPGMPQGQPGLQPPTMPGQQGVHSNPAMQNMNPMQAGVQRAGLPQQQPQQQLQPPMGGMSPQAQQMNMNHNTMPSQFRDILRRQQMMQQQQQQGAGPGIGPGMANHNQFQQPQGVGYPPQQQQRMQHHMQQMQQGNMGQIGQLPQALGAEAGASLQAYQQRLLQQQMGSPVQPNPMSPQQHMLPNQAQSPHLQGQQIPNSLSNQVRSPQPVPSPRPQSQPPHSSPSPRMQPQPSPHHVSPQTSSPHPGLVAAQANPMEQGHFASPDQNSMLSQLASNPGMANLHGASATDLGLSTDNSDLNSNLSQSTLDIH
Sequence of Bromodomain-containing protein 3 (Q15059 whole entry): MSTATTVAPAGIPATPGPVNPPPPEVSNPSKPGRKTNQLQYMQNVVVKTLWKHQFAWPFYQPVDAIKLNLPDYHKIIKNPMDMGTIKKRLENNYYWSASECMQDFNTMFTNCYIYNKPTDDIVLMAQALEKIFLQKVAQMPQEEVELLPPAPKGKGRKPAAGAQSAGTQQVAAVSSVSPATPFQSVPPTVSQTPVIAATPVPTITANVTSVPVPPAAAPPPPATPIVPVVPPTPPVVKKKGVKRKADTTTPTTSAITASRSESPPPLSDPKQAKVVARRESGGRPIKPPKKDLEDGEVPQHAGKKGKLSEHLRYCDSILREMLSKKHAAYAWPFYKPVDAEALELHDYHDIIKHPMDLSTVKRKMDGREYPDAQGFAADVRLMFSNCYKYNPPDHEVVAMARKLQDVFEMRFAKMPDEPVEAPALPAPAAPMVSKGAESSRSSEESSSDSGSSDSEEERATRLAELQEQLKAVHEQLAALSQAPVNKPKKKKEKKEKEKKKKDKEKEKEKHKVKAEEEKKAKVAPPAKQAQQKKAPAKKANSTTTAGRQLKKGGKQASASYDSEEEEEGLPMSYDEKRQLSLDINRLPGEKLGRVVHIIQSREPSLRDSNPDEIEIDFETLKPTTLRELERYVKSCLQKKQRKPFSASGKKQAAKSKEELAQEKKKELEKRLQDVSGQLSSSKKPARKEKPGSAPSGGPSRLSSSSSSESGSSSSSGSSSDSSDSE

A word on the IC50: it is the concentration that gives 50% inhibition. Take `Cc1sc2c(c1C)C(c1ccc(Cl)cc1)=N[C@@H](CC(=O)OC(C)(C)C)c1nnc(C)n1-2`: the IC50 was 1.56 µM in the data set on CFPAC-1; 2.44 µM in the data set on CAPAN-1; 3.74 µM in the data set on SW1990 [1]; 0.64 µM in the data set with MDA-MB-231; 19.4 µM in data set [2]. In the data set with SW1990 [3], the Activity worked out at 9.14%. Also, the inhibition entry in the data set on SW1990 [4], with SW1990 [5], with SW1990 [6], with SW1990 [7] and with SW1990 [8] was “Active” each time.

For the compound `CC[C@@H]1C(=O)N(C)c2cnc(N(C)c3ccc(-c4nc5c(C(N)=O)cccc5[nH]4)cc3OC)nc2N1C1CCCC1`, the half-inhibitory concentration (IC50) in the data set on CFPAC-1 was 1.16 µM; with CAPAN-1, 1.56 µM; in the data set with SW1990 [1], 0.98 µM; with MDA-MB-231, 0.34 µM; in [10], 0.166 µM; in data set [2], 59.4 µM. Besides, the inhibition result (in the data set on Mus musculus [9]; in the data set on Mus musculus [11]; in data set [12]; with SW1990 [27]; with SW1990 [28]; with SW1990 [29]) was “Active” throughout. In addition, the result in the data set on SW1990 [13], in the data set on Mus musculus [16], in the data set with Mus musculus [17], in the data set on Mus musculus [23], with SW1990 [24] and with SW1990 [25] was Active. In addition, the outcome with SW1990 [26] and in the data set with SW1990 [30] was Active. In addition, the Activity result in the data set on Mus musculus [14] is reported as “Non-Toxic”; with Mus musculus [15], “Non-Toxic”; with SW1990 [18] it was 1.71%; in the data set on SW1990 [19] it was 3.41%; in the data set on SW1990 [20] it was 74.76%; with SW1990 [21], 10.5%. For the same compound, in the data set with SW1990 [22], the Activity is recorded as 13.22%.

The values above are taken from ChEMBL document CHEMBL5053549, “Discovery of Potent and Novel Dual PARP/BRD4 Inhibitors for Efficient Treatment of Pancreatic Cancer” (J Med Chem, 2021).
